Where a SMILES comes first, the peptide text is derived from it. The star is where a group is joined. αGalNAc = CC(=O)N[C@@H]1[C@@H](O)[C@@H](O)[C@@H](CO)O[C@@H]1*
Columns and labels:
GalNAc-T2 [1] = target: T1, GalNAc-T2 (Homo sapiens, UniProt Q10471); assay: X-ray crystal structures of GalNAc-T2 complexes; format: binding; conditions: co-crystallization with UDP and Mn+2; flexible loop conformation
T1 construct: made in house
Experimental: In all cases, crystals were grown by hanging drop vapour diffusion at 18 °C. […] The protein solution consisting of 3.5 mg ml^−1 of GalNAcT-2, 5 mM UDP, 5 mM MnCl2 and 6 mM MUC5AC-13 in the same buffer described above was mixed with the precipitant solution containing 1.6 M ammonium sulfate, 100 mM sodium chloride and 100 mM HEPES (pH 7). The crystals were cryoprotected in saturated lithium sulfate and frozen in a nitrogen gas stream cooled to 100 K.
All data were processed and scaled using the XDS package[34] and CCP4 software. The crystal structures were solved by molecular replacement with Phaser[35] and using the PDB entry 4D0T as the template. Initial phases were further improved by cycles of manual model building in Coot[36] and refinement with REFMAC5 (ref. [37]). The AUs of the tetragonal crystals contain 1 molecule of GalNAc-T2 (Fig. 1). Coordinates and structure factors have been deposited in the Worldwide Protein Data Bank (wwPDB, and see Table 1 for the pdb codes).

GalNAc-T2 [2] = target: T1, GalNAc-T2; assay: Tryptophan fluorescence spectroscopy, dissociation constants of GalNAc-T2 against peptides; format: binding; conditions: Kd in the absence of UDP/Mn+2 compared with presence of the nucleotide
Experimental: All experiments were carried out in a Cary Eclipse spectrofluorometer (Varian) at 25 °C with GalNAc-T2 at 1 μM, and concentrations of peptides varying from 1 to 500 μM in 25 mM Tris, 150 mM NaCl, pH 7.5. The same experiments were also performed in the same buffer but containing 400 μM UDP and 1 mM MnCl2. Fluorescence emission spectra were recorded in the 300–400 nm range with an excitation wavelength of 280 nm, with slit width of 5 nm. The data analysis was performed in Prism (GraphPad software) considering a model with a single binding site (see equation (1), where F0 is the intrinsic fluorescence of the enzyme in the absence of quencher (Q), F1 is the observed fluorescence at a given quencher concentration, fa is the fractional degree of fluorescence and Kd is the dissociation constant.

GalNAc-T2 [3] = target: T1, GalNAc-T2; assay: SAXS with Ensemble Optimization Method: GalNAc-T2 conformations/oligomers with ligands; conditions: GalNAc-T2 5 mg/ml, 25 mM TRIS pH 7.5, 10 mM MnCl2, 10 °C; for Dmax: maximum intramolecular distance, GNOM; on all read-outs here: values in Å
Experimental: SAXS measurements were performed at the European Molecular Biology Laboratory on the storage ring PETRA-III (DESY-Hamburg) on the P12 beamline equipped with a robotic sample changer and a PILATUS-2M. The analysis of the SAXS data was performed by using the EOM[31]. Additional details are in Supplementary Methods. […]
Small-angle X-ray scattering (SAXS) and data analysis
All experiments were performed in a buffer consisting of 25 mM TRIS pH 7.5, 10 mM MnCl2. The first set of experiments contained three different protein concentrations: 10 mg/ml (180 µM), 5 mg/ml (90 µM), 2.5 mg/ml (45 µM) and 1 […]
mg/ml (18 µM). The protein was measured alone and in the presence of ten times molar excess of UDP, UDP-GalNAc, UDP-EA2 peptide, MUC5AC-13, UDP-MUC5AC-13, MUC5AC, and UDP-MUC5AC. The second set of experiments was carried out with the protein concentration fixed at 5 mg/ml, and increasing concentrations of UDP (450 µM, 900 µM, 1.8 mM, 4.5 mM and 9 mM). The concentration of MUC5AC-13 was also changed as follows: 1 mM, 5 mM and 7.5 […]
Synchrotron SAXS measurements were performed at the European Molecular
Biology Laboratory (EMBL) on the storage ring PETRA-III (DESY-Hamburg) on the P12 beamline equipped with a robotic sample changer and a PILATUS-2M. The sample-detector distance was 3.1 m. The scattering intensity, I(s), was recorded at 10 °C in a momentum transfer range of 0.007<s<0.444 Å -1, where s = (4πsinθ )/λ , 2θ is the scattering angle, and λ = 1.24 Å is the X-ray wavelength. Twenty consecutive 0.05 second measurements were performed for protein samples and buffers to monitor for radiation damage that were subsequently averaged (no systematic radiation effects were observed). Buffer scattering profiles were subtracted from the sample ones using standard procedures 8. The values of the forward scattering, I(0), and radii of gyration, Rg, were calculated from the experimental SAXS patterns using Guinier’s approximation (Supplementary Fig. 4 and 5), I(s) = I(0)exp(-s2Rg2/3), which is valid in the range sRg < 1.3.
Structural analysis of the SAXS data was performed using the Ensemble Optimization Method (EOM)9. A pool of 10,000 monomeric structures of GalNac-T2 was constructed with the program RanCh9 by connecting three-dimensional structures of the catalytic and the lectin domains, extracted from the crystallographic structure 2FFU, with a flexible linker of 12 residues with random coil conformations. To […]
properly describe the data, these monomeric ensembles were enriched with 100 equivalent curves corresponding to one dimeric arrangement. As we tested three dimers, we built three different ensembles with the same 10,000 monomeric conformations and 100 copies of each one of the dimers. The three different dimers used for SAXS are shown in Supplementary Fig. 3c and correspond to three different crystal structures obtained under different conditions.
The scattering profiles of all members of the pool were computed with the program CRYSOL using standard parameters10. The pool of structures/profiles was submitted to the genetic algorithm (GA) with the aim to select a subensemble of 50 structures/curves with the capacity to collectively describe the experimental SAXS […]
was repeated 200 times starting from different randomly selected subensembles, and the resulting solutions were analysed together. The same pool was used to describe all the measured data. Results were quantitatively analysed by displaying the Rg distributions of the selected ensembles and the relative population of monomeric and dimeric species.
Three different dimeric arrangements were introduced individually in the pool. In all three cases the dimers display similar contacts between the lectin domains and the lectin domain of one monomer with the catalytic domain of a second monomer (Supplementary Fig. 3c). We can distinguish the crystallographic dimers by the buried area parameter inferred from the PISA server. The dimers present in the crystal structure of GalNAc-T2-UDP complex (PDB entry 2FFV) are the most compact ones […]

GalNAc-T2 [4] = target: T1, GalNAc-T2; assay: Time-lapse AFM of single GalNAc-T2 molecules with ligands; conditions: in the presence of Mn+2; GalNAc-T2 2.0 nM on mica, UDP, UDP-GalNAc and MnCl2 20.0 nM, PBS pH 7.4, 20 °C
Experimental: AFM measurements were performed using a MultiMode 8 AFM system (Bruker). […] Additional details are in Supplementary Methods. […]
simulations were performed with the acceptor amino acid – UDPGalNAc distance and the RMSD of the Cα peptide carbon atoms as collective variables.
The values of the height and width of the Gaussian-like biasing potential were selected as 1.0 kcal·mol -1 and 0.25 Å, respectively. A temperature window of ΔT = 25000 K for the well-tempered algorithm was used together with a deposition time of 1 ps. The simulation was continued until the system completely explored the free energy landscape several times which, in terms of the simulation time, corresponds to approximately 100 ns for each metadynamics run.
Atomic Force Microscopy Imaging
In Tapping Mode image operation the cantilever driven by a piezoelectric actuator vibrates near its resonance frequency. Upon approaching the sample, the tip briefly touches the surface at the bottom of each swing, resulting in a decrease in oscillation amplitude. […]
AFM scanning requires the sample be immobilized on a nanoflat surface not to be swept away. […] The concentration of the protein incubated on the mica sheets was suitable to get isolated features that could be analyzed individually. […]
GalNAc-T2 presents a net positive charge at the working pH conditions due to its theoretical isoelectric point of 8.3. The immobilization of enzymes on mica was previously evaluated observing clearly they preserve the enzymatic activity5.
To determine how the ligands affect the conformational dynamics of GalNAc-T2, the enzyme was also incubated with ligands for 10 min under mild stirring at room temperature. […] AFM images were further analyzed by using the WSxM software6. […] At least 10 images of 10 different areas of 500 nm2 were analyzed for every sample and environment. Furthermore, each feature or associate was analyzed in detail with the zoom function of the WSxM program, performed without losing image information and or the discarding of artifacts. […]

[5] = ligand molar ratio GalNAc-T2:ligand 1:10

T1 sequence (Q10471 75-571 limits assumed): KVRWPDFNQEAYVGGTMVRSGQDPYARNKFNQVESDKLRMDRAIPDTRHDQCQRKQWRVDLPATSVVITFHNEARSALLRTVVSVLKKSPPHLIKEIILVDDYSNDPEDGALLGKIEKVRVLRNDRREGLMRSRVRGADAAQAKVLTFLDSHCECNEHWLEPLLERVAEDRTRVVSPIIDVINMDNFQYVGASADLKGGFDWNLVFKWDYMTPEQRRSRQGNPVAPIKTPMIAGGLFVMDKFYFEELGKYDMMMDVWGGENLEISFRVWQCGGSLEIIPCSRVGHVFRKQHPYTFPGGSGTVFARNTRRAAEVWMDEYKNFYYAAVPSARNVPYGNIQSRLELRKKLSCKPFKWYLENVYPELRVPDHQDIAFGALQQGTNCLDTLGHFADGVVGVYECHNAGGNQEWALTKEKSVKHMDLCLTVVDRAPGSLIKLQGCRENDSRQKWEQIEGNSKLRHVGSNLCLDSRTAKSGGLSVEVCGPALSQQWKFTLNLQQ

SMILES: CC(=O)N[C@H]1[C@@H](O[C@H](C)[C@H](NC(=O)[C@@H](NC(=O)[C@H](CO)NC(=O)[C@@H](NC(=O)[C@@H](NC(=O)[C@@H]2CCCN2C(=O)[C@@H](NC(=O)[C@@H]2CCCN2C(=O)[C@H](CO)NC(=O)[C@@H]2CCCN2C(=O)[C@@H](NC(=O)[C@@H](NC(=O)CN)[C@@H](C)O)[C@@H](C)O[C@H]2O[C@H](CO)[C@H](O)[C@H](O)[C@H]2NC(C)=O)C(C)C)[C@@H](C)O)[C@@H](C)O)[C@@H](C)O)C(=O)N[C@@H](CO)C(=O)N[C@@H](C)C(N)=O)O[C@H](CO)[C@H](O)[C@@H]1O [MUC5AC-3-13] (H-GTT(αGalNAc)PSPVPTTSTT(αGalNAc)SA-NH2; N-terminus assumed)
- form of GalNAc-T2 bound in crystal (GalNAc-T2 [1]): bound to the inactive form of GalNAc-T2

SMILES: CC(=O)NCC(=O)N[C@H](C(=O)N[C@H](C(=O)N1CCC[C@H]1C(=O)N[C@@H](CO)C(=O)N1CCC[C@H]1C(=O)N[C@H](C(=O)N1CCC[C@H]1C(=O)N[C@H](C(=O)N[C@H](C(=O)N[C@@H](CO)C(=O)N[C@H](C(=O)N[C@H](C(=O)N[C@@H](CO)C(=O)N[C@@H](C)C(N)=O)[C@@H](C)O)[C@@H](C)O)[C@@H](C)O)[C@@H](C)O)C(C)C)[C@@H](C)O)[C@@H](C)O [MUC5AC] (Ac-GTTPSPVPTTSTTSA-NH2; N-terminus assumed)
- Kd in the absence vs presence of UDP/Mn+2 (GalNAc-T2 [2]): fourfold better
- Rg from p(r) (GNOM) (GalNAc-T2 [3]; ligand molar ratio 1:10): 33.4 Å
- Dmax (GalNAc-T2 [3]; ligand molar ratio 1:10): 120 Å
- Rg (Guinier) (GalNAc-T2 [3]; [5]): 32.3±0.3 Å
- Rg (Guinier) (GalNAc-T2 [3]; peptide + UDP (1:10)): 32.0±0.2 Å
- Rg from p(r) (GNOM) (GalNAc-T2 [3]; peptide + UDP (1:10)): 33.3 Å
- Dmax (GalNAc-T2 [3]; peptide + UDP (1:10)): 120 Å

SMILES: CC(=O)N[C@H]1[C@@H](OP(=O)(O)OP(=O)(O)OC[C@H]2O[C@@H](n3ccc(=O)[nH]c3=O)[C@H](O)[C@@H]2O)O[C@H](CO)[C@H](O)[C@@H]1O [UDP-GalNAc, uridine diphosphate N-acetylgalactosamine, reference compound]
- Rg from p(r) (GNOM) (GalNAc-T2 [3]; ligand molar ratio 1:10): 34.6 Å
- Dmax (GalNAc-T2 [3]; ligand molar ratio 1:10): 124 Å
- Rg (Guinier) (GalNAc-T2 [3]; [5]): 34.7±0.4 Å
- conformational states of GalNAc-T2 observed (GalNAc-T2 [4]): either the very compact or the compact structure
